Source: the NIST ThermoML archive (doi:10.1021/acs.jced.9b00396)
± gives the expanded uncertainty stated by the source.

Conditions: Liquid; for speed of sound: Frequency=3 MHz, Single path-length method; for mass density: Vibrating tube method

OCc1ccccc1 [benzenemethanol]
Conditions | mass density [kg/m3] | speed of sound [m/s]
293.15 K, 100 kPa | 1045.6 ± 0.9 | 1541 ± 3
298.15 K, 100 kPa | 1041.8 ± 0.9 | 1526 ± 3
298.15 K, 500 kPa | 1042 ± 1 | –
298.15 K, 1000 kPa | 1042 ± 1 | –
298.15 K, 2500 kPa | 1043 ± 1 | –
298.15 K, 5000 kPa | 1044 ± 1 | –
298.15 K, 7500 kPa | 1045 ± 1 | –
298.15 K, 10000 kPa | 1046 ± 1 | –
298.15 K, 12500 kPa | 1047 ± 1 | –
298.15 K, 15000 kPa | 1049 ± 1 | –
298.15 K, 17500 kPa | 1050 ± 1 | –
298.15 K, 20000 kPa | 1051 ± 1 | –
298.15 K, 22500 kPa | 1052 ± 1 | –
298.15 K, 25000 kPa | 1053 ± 1 | –
298.15 K, 27500 kPa | 1055 ± 1 | –
298.15 K, 30000 kPa | 1056 ± 1 | –
298.15 K, 32500 kPa | 1057 ± 1 | –
298.15 K, 35000 kPa | 1058 ± 1 | –
313.15 K, 100 kPa | 1030 ± 0.9 | 1479 ± 3
318.15 K, 500 kPa | 1026 ± 1 | –
318.15 K, 1000 kPa | 1026 ± 1 | –
318.15 K, 2500 kPa | 1027 ± 1 | –
318.15 K, 5000 kPa | 1028 ± 1 | –
318.15 K, 7500 kPa | 1030 ± 1 | –
318.15 K, 10000 kPa | 1031 ± 1 | –
318.15 K, 12500 kPa | 1032 ± 1 | –
318.15 K, 15000 kPa | 1034 ± 1 | –
318.15 K, 17500 kPa | 1035 ± 1 | –
318.15 K, 20000 kPa | 1036 ± 1 | –
318.15 K, 22500 kPa | 1037 ± 1 | –
318.15 K, 25000 kPa | 1039 ± 1 | –
318.15 K, 27500 kPa | 1040 ± 1 | –
318.15 K, 30000 kPa | 1041 ± 1 | –
318.15 K, 32500 kPa | 1042 ± 1 | –
318.15 K, 35000 kPa | 1043 ± 1 | –
333.15 K, 100 kPa | 1011.3 ± 0.9 | 1417 ± 3
338.15 K, 500 kPa | 1010 ± 1 | –
338.15 K, 1000 kPa | 1010 ± 1 | –
338.15 K, 2500 kPa | 1011 ± 1 | –
338.15 K, 5000 kPa | 1013 ± 1 | –
338.15 K, 7500 kPa | 1014 ± 1 | –
338.15 K, 10000 kPa | 1016 ± 1 | –
338.15 K, 12500 kPa | 1017 ± 1 | –
338.15 K, 15000 kPa | 1018 ± 1 | –
338.15 K, 17500 kPa | 1020 ± 1 | –
338.15 K, 20000 kPa | 1021 ± 1 | –
338.15 K, 22500 kPa | 1023 ± 1 | –
338.15 K, 25000 kPa | 1024 ± 1 | –
338.15 K, 27500 kPa | 1025 ± 1 | –
338.15 K, 30000 kPa | 1026 ± 1 | –
338.15 K, 32500 kPa | 1028 ± 1 | –
338.15 K, 35000 kPa | 1029 ± 1 | –
358.15 K, 500 kPa | 994 ± 1 | –
358.15 K, 1000 kPa | 994 ± 1 | –
358.15 K, 2500 kPa | 995 ± 1 | –
358.15 K, 5000 kPa | 997 ± 1 | –
358.15 K, 7500 kPa | 998 ± 1 | –
358.15 K, 10000 kPa | 1000 ± 1 | –
358.15 K, 12500 kPa | 1001 ± 1 | –
358.15 K, 15000 kPa | 1003 ± 1 | –
358.15 K, 17500 kPa | 1005 ± 1 | –
358.15 K, 20000 kPa | 1006 ± 1 | –
358.15 K, 22500 kPa | 1007 ± 1 | –
358.15 K, 25000 kPa | 1009 ± 1 | –
358.15 K, 27500 kPa | 1010 ± 1 | –
358.15 K, 30000 kPa | 1012 ± 1 | –
358.15 K, 32500 kPa | 1013 ± 1 | –
358.15 K, 35000 kPa | 1014 ± 1 | –
378.15 K, 500 kPa | 977 ± 1 | –
378.15 K, 1000 kPa | 978 ± 1 | –
378.15 K, 2500 kPa | 979 ± 1 | –
378.15 K, 5000 kPa | 980 ± 1 | –
378.15 K, 7500 kPa | 982 ± 1 | –
378.15 K, 10000 kPa | 984 ± 1 | –
378.15 K, 12500 kPa | 985 ± 1 | –
378.15 K, 15000 kPa | 987 ± 1 | –
378.15 K, 17500 kPa | 989 ± 1 | –
378.15 K, 20000 kPa | 990 ± 1 | –
378.15 K, 22500 kPa | 992 ± 1 | –
378.15 K, 25000 kPa | 994 ± 1 | –
378.15 K, 27500 kPa | 995 ± 1 | –
378.15 K, 30000 kPa | 997 ± 1 | –
378.15 K, 32500 kPa | 998 ± 1 | –
378.15 K, 35000 kPa | 1000 ± 1 | –
398.15 K, 500 kPa | 960 ± 1 | –
398.15 K, 1000 kPa | 960 ± 1 | –
398.15 K, 2500 kPa | 962 ± 1 | –
398.15 K, 5000 kPa | 963 ± 1 | –
398.15 K, 7500 kPa | 965 ± 1 | –
398.15 K, 10000 kPa | 967 ± 1 | –
398.15 K, 12500 kPa | 969 ± 1 | –
398.15 K, 15000 kPa | 971 ± 1 | –
398.15 K, 17500 kPa | 973 ± 1 | –
398.15 K, 20000 kPa | 974 ± 1 | –
398.15 K, 22500 kPa | 976 ± 1 | –
398.15 K, 25000 kPa | 978 ± 1 | –
398.15 K, 27500 kPa | 979 ± 1 | –
398.15 K, 30000 kPa | 981 ± 1 | –
398.15 K, 32500 kPa | 983 ± 1 | –
398.15 K, 35000 kPa | 985 ± 1 | –
418.15 K, 500 kPa | 942 ± 1 | –
418.15 K, 1000 kPa | 943 ± 1 | –
418.15 K, 2500 kPa | 944 ± 1 | –
418.15 K, 5000 kPa | 946 ± 1 | –
418.15 K, 7500 kPa | 948 ± 1 | –
418.15 K, 10000 kPa | 950 ± 1 | –
418.15 K, 12500 kPa | 952 ± 1 | –
418.15 K, 15000 kPa | 954 ± 1 | –
418.15 K, 17500 kPa | 956 ± 1 | –
418.15 K, 20000 kPa | 958 ± 1 | –
418.15 K, 22500 kPa | 960 ± 1 | –
418.15 K, 25000 kPa | 962 ± 1 | –
418.15 K, 27500 kPa | 964 ± 1 | –
418.15 K, 30000 kPa | 965 ± 1 | –
418.15 K, 32500 kPa | 967 ± 1 | –
418.15 K, 35000 kPa | 969 ± 1 | –
438.15 K, 500 kPa | 924 ± 1 | –
438.15 K, 1000 kPa | 924 ± 1 | –
438.15 K, 2500 kPa | 926 ± 1 | –
438.15 K, 5000 kPa | 928 ± 1 | –
438.15 K, 7500 kPa | 930 ± 1 | –
438.15 K, 10000 kPa | 933 ± 1 | –
438.15 K, 12500 kPa | 935 ± 1 | –
438.15 K, 15000 kPa | 937 ± 1 | –
438.15 K, 17500 kPa | 939 ± 1 | –
438.15 K, 20000 kPa | 941 ± 1 | –
438.15 K, 22500 kPa | 944 ± 1 | –
438.15 K, 25000 kPa | 946 ± 1 | –
438.15 K, 27500 kPa | 948 ± 1 | –
438.15 K, 30000 kPa | 949 ± 1 | –
438.15 K, 32500 kPa | 952 ± 1 | –
438.15 K, 35000 kPa | 953 ± 1 | –
458.15 K, 500 kPa | 904 ± 1 | –
458.15 K, 1000 kPa | 905 ± 1 | –
458.15 K, 2500 kPa | 907 ± 1 | –
458.15 K, 5000 kPa | 909 ± 1 | –
458.15 K, 7500 kPa | 912 ± 1 | –
458.15 K, 10000 kPa | 915 ± 1 | –
458.15 K, 12500 kPa | 917 ± 1 | –
458.15 K, 15000 kPa | 920 ± 1 | –
458.15 K, 17500 kPa | 922 ± 1 | –
458.15 K, 20000 kPa | 924 ± 1 | –
458.15 K, 22500 kPa | 927 ± 1 | –
458.15 K, 25000 kPa | 929 ± 1 | –
458.15 K, 27500 kPa | 931 ± 1 | –
458.15 K, 30000 kPa | 933 ± 1 | –
458.15 K, 32500 kPa | 935 ± 1 | –
458.15 K, 35000 kPa | 937 ± 1 | –
473.15 K, 500 kPa | 889 ± 1 | –
473.15 K, 1000 kPa | 891 ± 1 | –
473.15 K, 2500 kPa | 892 ± 1 | –
473.15 K, 5000 kPa | 895 ± 1 | –
473.15 K, 7500 kPa | 898 ± 1 | –
473.15 K, 10000 kPa | 901 ± 1 | –
473.15 K, 12500 kPa | 903 ± 1 | –
473.15 K, 15000 kPa | 906 ± 1 | –
473.15 K, 17500 kPa | 909 ± 1 | –
473.15 K, 20000 kPa | 911 ± 1 | –
473.15 K, 22500 kPa | 914 ± 1 | –
473.15 K, 25000 kPa | 916 ± 1 | –
473.15 K, 27500 kPa | 919 ± 1 | –
473.15 K, 30000 kPa | 921 ± 1 | –
473.15 K, 32500 kPa | 923 ± 1 | –
473.15 K, 35000 kPa | 925 ± 1 | –
